Earlier results on one compound are cited in US20240252431A1, “PULMONARY BIGUANIDE FORMULATIONS AND DELIVERY DEVICES” (Onconox Inc., priority 2021, published 2024).

Series [1] deals with lung fibrosis elicited by bleomycin. The settings on record: mouse bleomycin model; treatment starting three weeks after lung injury, continuing five weeks.
In series [2] the test system is radiation induced pneumonitis. As to conditions: in vivo.

Take `CN(C)C(=N)N=C(N)N` [Metformin, metformin]: the “effect on established lung fibrosis” value in series [1] was “reverse established lung fibrosis”. Also, the “effect on radiation induced pneumonitis” value in series [2] was “protect against radiation induced pneumonitis”.
